Test results as given in patent US5670501A, “N-substituted 9-alkyladenines” (Discovery Therapeutics, Inc., priority 1994, dated 1997).

Legend:
[1] = target: T1, adenosine A1 receptor (Bos taurus, UniProt P28190); experiment: Receptor affinity (radioligand binding), A1, [3H]CHA; parameters: species or system bovine; conditions: for Ki: [3H]CHA, room temperature, 2 hours, tissues listed: bovine caudate, guinea pig cortex, guinea pig striatum (only Example 13 marked guinea pig); for Selectivity Ratio (A2 Ki /A1 Ki): radioligand binding
T1 construct: were homogenized with a Brinkman polytron and the membranes were collected by centrifugation; from tissue; host or cells: bovine caudate membranes
T1 sequence (P28190 1-326): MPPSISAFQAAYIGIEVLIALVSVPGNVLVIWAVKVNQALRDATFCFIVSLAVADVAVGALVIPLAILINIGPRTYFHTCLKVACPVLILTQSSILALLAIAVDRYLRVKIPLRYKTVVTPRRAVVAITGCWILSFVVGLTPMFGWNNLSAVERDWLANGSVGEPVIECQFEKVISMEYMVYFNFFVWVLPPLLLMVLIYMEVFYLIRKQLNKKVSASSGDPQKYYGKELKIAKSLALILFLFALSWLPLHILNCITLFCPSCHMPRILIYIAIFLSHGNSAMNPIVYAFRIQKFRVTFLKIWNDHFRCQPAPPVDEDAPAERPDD
Protocol: (§1) 1. Receptor Affinity Experiments (Radioligand Binding)
(§2) Tissues (bovine caudate, guinea pig cortex, guinea pig striatum) were homogenized with a Brinkman polytron and the membranes were collected by centrifugation at 40,000×g at 4° C. for 10 min. The membranes were washed by resuspension and centrifugation, resuspended, and incubated in the presence of 1 U/ml adenosine deaminase for 15-30 min. at 37° C. The membranes were diluted, centrifuged once, and resuspended to a final concentration of 0.5-2 mg protein/ml. Adenosine deaminase (0.1 U/ml) was included in the final resuspension. Assays were initiated by addition of membranes. The compounds of the present invention were subjected to the following experimental conditions: A1 determinations/incubated with [^3 H]CHA at room temperature for 2 hours, A2 determinations/incubated with [^3 H]NECA at room temperature for 1 hour. Assays were terminated by filtration, and the filters were counted in scintillation counters.

[2] = target: adenosine A2 receptor; experiment: Receptor affinity (radioligand binding), A2, [3H]NECA; parameters: species or system bovine / guinea pig; conditions: room temperature, 1 hour
Protocol: as §1, §2

[3] = target: T2, adenosine A1 receptor (Cavia porcellus, UniProt P47745); experiment: A1 in vitro functional test: negative inotropic response, left atria, antagonism of NECA; format: cell-based, guinea pig; conditions: for Kb: guinea pig left atria, electrically evoked twitch, NECA agonist, 31° C, Schild plot, read-out: A1 KB (antagonist dissociation constant); for Selectivity Ratio (A2 KB /A1 KB): functional
T2 construct: from tissue; host or cells: isolated guinea pig left atria
T2 sequence (P47745 1-326): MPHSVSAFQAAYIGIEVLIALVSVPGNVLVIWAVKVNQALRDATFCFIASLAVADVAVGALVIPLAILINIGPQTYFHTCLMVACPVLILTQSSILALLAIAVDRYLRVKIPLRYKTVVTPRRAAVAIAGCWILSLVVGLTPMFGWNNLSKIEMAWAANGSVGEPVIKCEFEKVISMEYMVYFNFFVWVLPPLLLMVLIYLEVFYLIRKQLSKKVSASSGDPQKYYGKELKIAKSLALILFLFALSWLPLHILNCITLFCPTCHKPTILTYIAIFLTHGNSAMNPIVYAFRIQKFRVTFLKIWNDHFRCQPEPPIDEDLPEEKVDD
Protocol: 2. Adenosine--A1 /A2 In Vitro Functional Tests
(A1 Assay: Negative inotropic response)-Guinea pig left atria were placed in organ baths filled with Krebs Henseleit solution gassed with 95% O2 and 5% CO2 and maintained at a temperature of 31° C. An initial resting tension of 1 gm. was placed on each tissue, which was allowed to equilibrate. Atria were stimulated electrically to produce twitch responses. A dose-response curve for the inhibition of the electrically-evoked twitch response was obtained by cumulative addition of the adenosine agonist […]. After the washout of the tissue, a fixed concentration of test compound was added and the tissue allowed to equilibrate for 1 hr. before cumulative additions of the adenosine agonist 5'-N-ethylcarboxamidoadenosine (NECA) to generate a new dose response curve. This procedure was repeated with different fixed concentrations of test compounds to generate a family of dose response curves. Schild plots were constructed from the resultant concentration-effect curves, and KB (antagonist dissociation constant) values were obtained. The results (see Table VII) are expressed as KB values (concentration of test compound such that one-half of the tissue adenosine receptor population is occupied by the test compound).

Row | Compound | Ki [1] [nM] | Selectivity Ratio (A2 Ki /A1 Ki) [1] | Ki [2] [nM] | Kb [3] [nM] | Selectivity Ratio (A2 KB /A1 KB) [3]
1 | Cn1cnc2c(N[C@H]3C[C@H]4C[C@@H]3C[C@@H]4O)ncnc21 (relative stereo) [Example 30, (±)-N^6-[exo-2',(exo-5'-hydroxy)-norbornyl]-9-methyladenine] | 363 | 1,176 | 42700 | 1310 | 
2 | Cn1cnc2c(N[C@H]3C[C@@H]4C[C@H]3C[C@@H]4O)ncnc21 (relative stereo) [Example 21, (±)-N^6-[endo-2'-(endo-5'-hydroxy)-norbornyl]-9-methyladenine] | 19.1 | 165 | 3160 | 309 | 324
3 | Cn1cnc2c(N[C@H]3C[C@H]4C[C@@H]3c3ccccc34)ncnc21 (relative stereo) [Example 38] | 17.8 | 331 | 5890 | 1580 | 
4 | CCN(CC)c1nc2c(N[C@H]3C[C@H]4CC[C@@H]3C4)ncnc2n1C (relative stereo) [Example 10, (±)-N^6-(endo-2'-norbornyl)-8-diethylamino-9-methyladenine] | 1 | 331 | 331 | 117 | 
5 | COc1ccc2c(c1)[C@H]1C[C@H](Nc3ncnc4c3ncn4C)[C@@H]2C1 (relative stereo) [Example 40] | 8.91 | 631 | 5620 | 1120 | 
6 | CSc1nc2c(N[C@H]3C[C@H]4CC[C@@H]3C4)ncnc2n1C (relative stereo) [Example 3, (±)-N^6-[endo-2'-norbornyl]-8-methylthio-9-methyladenine] | 6.03 | 66 | 398 | 65 | > 1540
7 | Cn1cnc2c(N[C@@H]3C[C@H]4C[C@@H]3c3ccccc34)ncnc21 (relative stereo) [Example 39] | 468 | 33 | 15500 | 28800 | 
8 | Cn1c(C#N)nc2c(N[C@H]3C[C@H]4CC[C@@H]3C4)ncnc21 (relative stereo) [Example 1, (±)-N^6-(endo-2'-norbornyl)-8-cyano-9-methyladenine] | 3.89 | 362 | 1410 | 81 | 46
9 | Cn1c(C(N)=O)nc2c(N[C@H]3C[C@H]4CC[C@@H]3C4)ncnc21 (relative stereo) [Example 2, (±)-N^6-(endo-2'-norbornyl)-8-amido-9-methyladenine] | 12.9 | 275 | 3550 | 257 | > 390
10 | Cn1c(N2CCSCC2)nc2c(N[C@H]3C[C@H]4CC[C@@H]3C4)ncnc21 (relative stereo) [Example 9] | 7.94 | 1,259 | 10000 |  | 

Next, values leading:

Row | Ki [1] [nM] | Selectivity Ratio (A2 Ki /A1 Ki) [1] | Ki [2] [nM] | Kb [3] [nM] | Selectivity Ratio (A2 KB /A1 KB) [3] | Compound
11 | 6.17 | 219 | 1350 | 501 |  | CN(C)c1nc2c(NC3CCCC3)ncnc2n1C [Example 8, N^6-cyclopentyl-8-dimethylamino-9-methyladenine]
12 | 97.7 | 323 | 31600 | 2950 |  | Cn1cnc2c(N[C@H]3C[C@@H]4C[C@H]3C[C@H]4O)ncnc21 (relative stereo) [Example 22]
13 | 45.7 | 241 | 11000 | 2080 | > 152 | Cn1cnc2c(NC3CCCCC3)ncnc21 [Example 47, N^6-cyclohexyl-9-methyladenine, reference compound]
14 | 105 | 137 | 14400 | 4070 |  | Cn1cnc2c(N[C@H]3C[C@H]4C[C@@H]3C[C@H]4O)ncnc21 (relative stereo) [Example 31]
